pIC50: −log10 of the molar value. Activity calls are given as the source filed them. No rule for the calls is given here. Where a SMILES comes first, the peptide text is derived from it.
What was measured:
[1] = system: M. tuberculosis H37Rv growth inhibition, no glycerol; assay: Mycobacterium tuberculosis H37Rv growth inhibition, absence of glycerol, confirmatory assay (AID 504564); conditions: for IC90: 90% growth inhibition concentration
[2] = as above; conditions: M. tuberculosis H37Rv growth inhibition, no glycerol; at 25 µM (top of the series)

SMILES | pIC50 [1] | IC90 [1] [nM] | growth inhibition [2]
CCOC1OC(=O)C(Cl)=C1Nc1ccccc1C (stereo not given) | 5.58 | 4410 | 
O=C(/C=C/c1ccccc1)N1CCN(CCN2C(=O)c3cccc4cccc(c34)C2=O)CC1 | 5.82 | 4020 | 
CCOC(=O)c1ccc(NC(=O)Cn2ncc(Cl)c(Cl)c2=O)cc1 | 7.05 | 280 | 
O=C(NCC(c1cccs1)N1CCOCC1)c1cc([N+](=O)[O-])cc([N+](=O)[O-])c1 (stereo not given) | 6.82 | 310 | 
COC(=O)c1cc(=O)n(-c2ccc(F)cc2)c(=Nc2ccc(F)cc2)s1 | 6.52 | 1100 | 
Cc1cc(Br)ccc1NC(=O)c1cnc(N2CCN(c3ccccn3)CC2)c2ccccc12 | 6.07 | 2540 | 
COc1cc(NC(=O)C/C(C)=N/NC(=O)c2ccccn2)c(OC)cc1Cl | 5.69 | 6770 | 
CC(C)NC(=O)c1sc(=S)n2c1[nH]c(=O)c1ccc(C(=O)NCCc3ccc(Cl)cc3)cc12 | 6.68 | 430 | 
O=C(CSc1nc2ccccc2c(=O)[nH]1)NC1CCCCC1 | > 8.00 | < 10 | 
COC(=O)C(Nc1nc(SCC(=O)NC2CCCCC2)nc2ccccc12)c1ccccc1 (stereo not given) |  |  | 3.49% (inactive)
c1ccc(/N=C2\N=C(Nc3ccccn3)c3ccccc32)nc1 | 7.70 | 30 | 
Cc1cccc(-c2oc3ccc(-c4ccc5c(c4)OCO5)cc3c2C#Cc2cncn2C)c1 | 5.65 | 2930 | 
O=C(CSc1nc2ccccc2c(=O)[nH]1)NCc1ccc(Cl)cc1 | 6.52 | 660 | 
S=c1nc[nH]c2nc[nH]c12 | 5.99 | 1520 | 
Cc1ccc(NC(=O)C2C3/C=C\CCCCC32)cc1C (stereo not given) | 5.73 | > 25000 | 
COC(=O)CCc1nc2c(C#N)c(-c3ccc(Cl)cc3)ccn2n1 | 6.08 | 3540 | 
Cc1ccc2ccc3ccc(C)nc3c2n1 | 6.80 | 450 | 
COC(=O)C(C)Oc1ccc(-c2nccc(-c3ccccn3)n2)cc1 (stereo not given) | 5.79 | 4320 | 
CCOC(=O)COn1c2c(c3c4no[n+]([O-])c4ccc31)CCCC2 | 5.80 | 3040 | 
Cc1ccc2c(c1)c(C1=c3ccccc3=NC1=O)c(O)n2C | 6.31 | 1500 | 

SMILES | pIC50 [1] | IC90 [1] [nM] | growth inhibition [2]
CNc1nc(SCc2ccccc2Cl)nc2c1CCCC2 | 6.37 | 1060 | 
CC(=NCc1ccc2c(c1)OCO2)C1=C(O)c2ccccc2C1=O | 7.15 | 600 | 
CCOC(=O)C(C)Sc1ncnc2c1nnn2-c1ccc(F)cc1 (stereo not given) | 6.35 | 4760 | 
Cc1nn2c(NCc3ccccn3)cc(C(C)C)nc2c1-c1ccccc1 | 6.19 | 1200 | 
CCc1ccc(/C=C2/C(=O)N(C)C(=S)N2CC(=O)OC)s1 | 6.34 | 1910 | 
Nc1c(C(=O)NC2CCCCC2)nsc1C(=O)OCC(=O)NC1CCCCC1 | 6.35 | 1230 | 
CCC(C)Nc1ccc(NC(C)CC)cc1 (stereo not given) | 6.23 | 990 | 
CCOC(=O)COc1ccc(/C=C2\NC(=S)N(CC)C2=O)cc1 | 5.77 | 4460 | 
O=C1C(Br)=Cc2cccc3cccc1c23 | 7.22 | 170 | 
COC(=O)c1ccc(CNc2c(N3CCCC3)c(=O)c2=O)cc1 |  |  | -5.07% (inactive)
Cc1nc(SCC(=O)NC2CCCCC2)[nH]c(=O)c1C | 6.60 | 740 | 
Oc1ccccc1/C=N/Nc1ccnc(SCc2ccccc2)n1 |  |  | 0.48% (inactive)
CC1CCN(C(=O)C2CCN(c3nnc(-n4cccc4)s3)CC2)CC1 | 5.94 | 2830 | 
Cc1cccc(/C=C/C(=O)c2ccc([N+](=O)[O-])o2)c1 | 7.70 | 20 | 
O=C(/C=C\c1cccs1)N1CCN(Cc2ccc3c(c2)OCO3)CC1 | 6.85 | 330 | 
Cc1ccc(C(=O)N/N=C(/CC(=O)c2cccs2)C(F)(F)F)cc1 | 6.25 | 890 | 
CCOC(=O)CNC(=O)[C@H](Cc1ccccc1)NC(=O)OCc1ccccc1 (HELM PEPTIDE1{[O=C(OCc1ccccc1)[*:2]].F.G.[CCO[*:1]]}$$$$V2.0) | 5.97 | 2500 | 
COC(=O)C1CC(=O)N(c2ccc(OCc3ccccc3Cl)cc2)C1 (stereo not given) | 6.47 | 2630 | 
CC[N+](C)(CC)CCCCOc1ccc2c(c1)C(=O)c1cc(OCCCC[N+](C)(CC)CC)ccc1-2 | 6.15 | 1200 | 

— PubChem BioAssay AID504564 (Southern Research Specialized Biocontainment Screening …, 2011)
